Test results published in US6753424B1, “Conjugates of DNA interacting groups with steroid hormones for use as nucleic acid transfection agents” (priority 1998, dated 2004).

Key:
[1] = tested on: CV-1 cells reconstituted with exogenous GR; assay: Transfection enhancement, CMV-LacZ reporter, CV-1 cells reconstituted with exogenous GR; assay type: cell-based, monkey
Description: Conditions: CV-1 cells are first infected with an adenovirus system allowing expression of GR in >90% of the cells (S. B. Verca, unpublished). After 24 hours the cells are; transfected with an expression vector that is constitutively expressing the reporter gene LacZ (CMV-LacZ). Transfection conditions and analysis of LacZ reporter are the same as described in Example 7 legend. Transfection is performed O/N and after rinsing of the precipitate the cells are further incubated for 24 hours. LacZ levels are determined from cell extracts with a chemiluminescence LacZ enzyme assay (Galactolight plus, Tropix). The relative luminescence from each extract is given. Each value represents an individual extract. “Induction”: relative reporter gene activity (values divided by value of assay in lane 9, true negative control for liganding), rel/RLU=(RLU:protein)×1000, net=rel/RLU−600 (600=rel/RLU value approximately corresponding to rel/RLU value of mock transfection).

[2] = tested on: CV-1 cells reconstituted with exogenous GR; assay: as above; assay type: cell-based, monkey; settings: CV-1 cells that have not been supplemented with GR; data not shown
GR-GFP chimera = assay: Nuclear Transfer Induction assay (NTI), monourethane ligands, HeLa cells; assay type: cell-based; settings: 1 hr
Description: Conditions: HeLa cells are transiently transfected by CaPO4 with an expression vector encoding a GR-GFP chimera (5 μg in transfection cocktail, 4 cm diameter dishes, DMEM with 3% FCS). After 24 hour expression, ligand is added for 1 hr and cells are fixed with formaldehyde (5 min 4° C.) and inspected by fluorescence microscopy. Fluorescent cells are counted and divided into different classes according to ‘cytoplasmic’ (C) versus ‘nuclear’ (N) localisation of fluorescence.
First column: “Conditions”: Name of compounds added (marked at top: ‘//ligand’), and their concentration (in parentheses) and assay number (01 through 21).
Values are given as percentage of cells displaying the corresponding localisatidn, within each tested condition the sum is 100%.

HUH-7 cells = assay: Transfection enhancement, CMV-LacZ reporter, HUH-7 cells; assay type: cell-based, human
Description: Conditions: HUH-7 cells are human hepatoma cells that contain substantial amounts of glucocorticoid receptor. The cells are transfected with an expression vector that is constitutively expressing the reporter gene LacZ (CMV-LacZ). Transfection conditions and analysis of LacZ reporter are the same as described in Example 7 legend. Transfection is performed O/N and after rinsing of the precipitate the cells are further incubated for 24 hours. LacZ levels are determined from cell extracts with a chemiluminescence LacZ enzyme assay (Galactolight plus, Tropix). The relative luminescence from each extract is given. Each value represents an individual extract. “Induction”: relative reporter gene activity (values divided by value of assay in lane 9, true negative control for DNA liganding). rel/RLU=(RLU:protein)×1000; net=rel/RLU−600 (600=rel/RLU value approximately corresponding to rel/RLU value of mock transfection).

3Y1 cells = assay: Transfection enhancement, CMV-LacZ reporter, CaPO4 transfection of 3Y1 cells; assay type: cell-based, rat; settings: for light units (relative luminescence, LacZ): 5 μg reporter, 3Y1
Description: Conditions: 3Y1 cells are transfected with an expression vector that is constitutively expressing the reporter gene LacZ (CMV-LacZ). Transfection conditions are identical throughout the various samples (total 10-12 μq DNA for 4 cm dishes). In some samples the DNA used for the transfection cocktail is pre-incubated with various conjugates at the given concentrations. The concentrations are calculated to give from 10−8 to 10−6 M after dispersing the CaPO4 precipitate in the recipient dish (5 ml volume). Transfection is performed O/N and after rinsing of the precipitate the cells are further incubated for 24 hours. LacZ levels are determined from cell extracts with a chemiluminescence LacZ enzyme assay (Galactolight plus. Tropix). The relative luminescence from each extract is given in RLU/mg*1000.
Cell culture. Cells are cultivated in DMEM supplemented with serum and antibiotica according to standard conditions (typically 10% FCS and Pen/Strep as antibiotica). At the day of transfection, cells are trypsinized and seeded at around 25-30% confluency. Cells are allowed to adhere to dish for 4-6 hours prior to transfection.
DNA pre-incubation (example for conditions that give5×10 exp (−6) Molar final concentration of the CL-C4-EtBr conjugate):
5 microgram of CMV-LacZ DNA (in 10 microliter TE) are mixed with 10 nmoles of hormone derivative (10 microliters stock solution) and incubated for 10 min at room temperature (final volume: 20 ul). The DNA/cortisol-C4-ethidum mix is then supplemented with 7 micrograms sheared calf thymus carrier DNA (in 14 microliters TE) and bidistilled water to give a final volume of 125 microliters.
Transfection by CaPO4: to each transfection sample (125 microliter volume DNA+water). 125 microliters of Ca ++ mix are added, and the mix is incubated for 5-10 min at room temperature. Each sample is then supplemented with 250 microliter of Pi-mix (with simultaneous mixing by up-down pipetting) and is further incubated 10 minutes at room temperature after which the cocktail is poured on top of the medium (5 ml) of each cell culture dish (4 cm diameter). The optimal time of incubation after Pi-mix addition is pre-determined by prior evaluation (size of the precipitate) of parallel samples. The precipitate is allowed to deposit onto the cells for 15 hours (incubation of 37 degrees, 5% CO2). The cells are then rinsed twice with Tris-buffered Saline, supplemented with fresh medium and further incubated under standard conditions. To analyze LacZ reporter gene function, the cells are either fixed or harvested 24 hours after precipitate removal.
Variation of parameters: samples in which the C1-C4-EtBr conjugates (or control compounds) are used at different concentrations, are similarly treated, except that the concentration of the stock solution in ethanol is correspondingly varied.

[3] = tested on: pBR322, linearized with HindIII; assay: DNA cross-linking by 365 nm UV irradiation, alkaline gel electrophoresis; assay type: biochemical; settings: 5 nmoles, 1 microgram DNA, 20 min 365 nm UV
Description: DNA: CsCl purified pBR322, linearized with HindIII and resuspended in TE at a concentration of 30 nanogram/microliter hormone derivative: cortisol-C4psoralen resuspended in 100% methanol at a concentration of 10 exp(−3) Molar psoralen (Fluka) resuspended in 100% ethanol at a concentration of 10 exp(−3)Molar.
Irradiation buffer: 50 mM Tris (pH=7.5), 0.1 mM EDTA, 10 mM NaCl, 10 mM MgCl2 crosslinker apparatus: Bio-Link (BLX) equipped with 4 UV lamps (T-8.L, 365 nanometer nominal wave length) 1 microgram of DNA (in 33 microliter) is mixed at room temperature with 5 nmoles cortisol-C4-psoralen or plain psoralen (either in 5 microliter) and 33 microliter irradiation buffer and pipetted into a well (final volume: 71 microliter) The 96× wells plate is then covered by its plastic lid and put on top of an ice-bed in a plastic box inside the crosslinker apparatus. The cooled microwell plate is irradiated for 20 min with 365 nm UV light (corresponds to an approximate value of 16 joules/square cm). The cross-linked products are then precipitated 2 times with ethanol and resuspended in TE. The products are compared to non-irradiated samples by alkaline gel electrophoresis, where cross-linked DNA maintains its double-stranded molecular weight.

## CC[n+]1c(-c2ccccc2)c2cc(NC(=O)CCNC(=O)OCC(=O)[C@@]3(O)CCC4C5CCC6=CC(=O)CCC6(C)C5C(O)CC43C)ccc2c2ccc(N)cc21 (stereo partly drawn) [CL-C4-EtBr]
[1]; lane 06 (10-6) versus lanes 7-9, CV-1 with GR
  improvement of expression: 15-20 fold
[1]; ligand 10-6, CV-1 with GR
  RLU: 10010
  induction (relative reporter gene activity, divided by value of lane 9): 17.3
  net = rel/RLU−600: 13992
  rel/RLU = (RLU:protein)×1000: 14592
[1]; ligand 10-7, CV-1 with GR
  RLU: 1988
  induction (relative reporter gene activity, divided by value of lane 9): 2.75
  net = rel/RLU−600: 2232
  rel/RLU = (RLU:protein)×1000: 2831.9
[1]; ligand 10-8, CV-1 with GR
  RLU: 1211
  induction (relative reporter gene activity, divided by value of lane 9): 1.33
  net = rel/RLU−600: 1075
  rel/RLU = (RLU:protein)×1000: 1675
[2]
  SMGD effect (transfection enhancement): No SMGD effect
GR-GFP chimera; ligand 1.10-6M
  C < N, percentage of cells: 45%
  C << N, percentage of cells: 0%
  C = N, percentage of cells: 55%
  C > N, percentage of cells: 0%
  C >> N, percentage of cells: 0%
GR-GFP chimera; ligand 1.10-7M
  C < N, percentage of cells: 9%
  C << N, percentage of cells: 0%
  C = N, percentage of cells: 74%
  C > N, percentage of cells: 17%
  C >> N, percentage of cells: 0%
HUH-7 cells; lane 07 (10-6) versus lanes 8-9, HUH-7
  improvement of expression: 7-8 fold
HUH-7 cells; ligand 10-6, HUH-7
  RLU: 629514
  induction (relative reporter gene activity, divided by value of lane 9): 7.84
  net: 543
  rel/RLU: 673.3
HUH-7 cells; ligand 10-7, HUH-7
  RLU: 198082
  induction (relative reporter gene activity, divided by value of lane 9): 1.95
  net: 135
  rel/RLU: 265.2
3Y1 cells; lane 10 (10^-6M) versus lanes 11-13, 3Y1
  improvement of expression: 5-7 fold
3Y1 cells; ligand 10^-6M
  light units (relative luminescence, LacZ): 7250 RLU/mg*1000
3Y1 cells; ligand 10^-7M
  light units (relative luminescence, LacZ): 3750 RLU/mg*1000
3Y1 cells; ligand 10^-8M
  light units (relative luminescence, LacZ): 2750 RLU/mg*1000

## Cc1oc2c(C)c3oc(=O)cc(C)c3cc2c1CNC(=O)CCNC(=O)OCC(=O)[C@@]1(O)CCC2C3CCC4=CC(=O)CCC4(C)C3C(O)CC21C (stereo partly drawn) [CL-C4-Pso]
GR-GFP chimera; ligand 1.10-6M
  C < N, percentage of cells: 63%
  C << N, percentage of cells: 8%
  C = N, percentage of cells: 29%
  C > N, percentage of cells: 0%
  C >> N, percentage of cells: 0%
GR-GFP chimera; ligand 1.10-7M
  C < N, percentage of cells: 5%
  C << N, percentage of cells: 0%
  C = N, percentage of cells: 75%
  C > N, percentage of cells: 20%
  C >> N, percentage of cells: 0%
[3]
  DNA cross-linking efficiency: as efficient as cross-linking with free psoralen
